Test results as given in PMC5547395 (EXCLI Journal, 2017).

What was measured:
[1] = biological target: T1, human CYP51 (hCYP51) (Homo sapiens, UniProt Q16850); assay: Kd reported; presumably UV-visible difference spectroscopy (type II), human assay not described in Methods; format: binding
T1 construct: gene CYP51A1
T1 sequence (Q16850 1-509): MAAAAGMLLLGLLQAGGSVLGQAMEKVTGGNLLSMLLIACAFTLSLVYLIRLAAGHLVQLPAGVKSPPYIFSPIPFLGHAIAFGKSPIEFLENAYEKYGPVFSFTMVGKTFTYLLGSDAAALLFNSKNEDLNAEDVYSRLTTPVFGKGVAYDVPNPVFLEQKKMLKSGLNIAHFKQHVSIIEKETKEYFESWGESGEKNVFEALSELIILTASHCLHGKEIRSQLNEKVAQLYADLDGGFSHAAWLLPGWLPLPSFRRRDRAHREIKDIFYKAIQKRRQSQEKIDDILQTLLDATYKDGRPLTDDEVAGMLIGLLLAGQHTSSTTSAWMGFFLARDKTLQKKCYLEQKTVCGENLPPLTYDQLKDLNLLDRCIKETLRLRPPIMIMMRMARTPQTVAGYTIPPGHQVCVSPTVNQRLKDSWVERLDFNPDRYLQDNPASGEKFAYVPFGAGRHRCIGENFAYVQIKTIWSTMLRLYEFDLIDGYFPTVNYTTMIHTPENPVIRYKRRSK

[2] = biological target: T2, Sterol 14α-demethylase (CYP51) from Candida albicans (CaCYP51) (Candida albicans, UniProt P10613); assay: UV-visible difference spectroscopy (type II spectral response) with isolated CYP51; format: binding
T2 construct: gene ERG11
T2 sequence (P10613 whole entry): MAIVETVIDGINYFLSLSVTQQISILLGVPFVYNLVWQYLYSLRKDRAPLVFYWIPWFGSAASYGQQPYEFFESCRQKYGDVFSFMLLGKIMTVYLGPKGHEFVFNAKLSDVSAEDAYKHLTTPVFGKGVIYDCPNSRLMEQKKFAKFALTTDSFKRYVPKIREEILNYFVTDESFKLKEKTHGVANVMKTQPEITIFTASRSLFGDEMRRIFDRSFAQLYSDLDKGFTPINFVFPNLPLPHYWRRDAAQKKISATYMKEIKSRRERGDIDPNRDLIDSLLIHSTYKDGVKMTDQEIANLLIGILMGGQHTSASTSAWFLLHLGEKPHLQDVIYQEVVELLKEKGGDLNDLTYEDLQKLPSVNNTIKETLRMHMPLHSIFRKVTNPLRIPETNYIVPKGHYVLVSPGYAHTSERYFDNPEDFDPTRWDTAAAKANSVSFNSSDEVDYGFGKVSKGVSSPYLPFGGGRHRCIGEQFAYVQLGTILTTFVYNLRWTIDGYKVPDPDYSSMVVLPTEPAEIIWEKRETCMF

CC(=O)N1CCN(c2ccc(OC[C@H]3CO[C@](Cn4ccnc4)(c4ccc(Cl)cc4Cl)O3)cc2)CC1 (racemic) [ketoconazole]
Kd [1]: < 50 nM | Kd [2]: < 50 nM
